Source: article PMC11995211, “Design, Synthesis, and Evaluation of a New Fluorescent Ligand for the M2 Muscarinic Acetylcholine Receptor” (ACS Medicinal Chemistry Letters, 2025)

What was measured:
hM1R = molecular target: T1, hM1R (Homo sapiens, UniProt P11229); assay: Radioligand competition binding, [3H]-scopolamine (N-methyl), CHO cell membranes, hM1R; conditions: 10 μM compound; radioligand binding; read-out: inhibition at 10 μM (M1)
T1 construct: expressed in transfected cells; host or cells: CHO cell membranes
T1 sequence (P11229 1-460): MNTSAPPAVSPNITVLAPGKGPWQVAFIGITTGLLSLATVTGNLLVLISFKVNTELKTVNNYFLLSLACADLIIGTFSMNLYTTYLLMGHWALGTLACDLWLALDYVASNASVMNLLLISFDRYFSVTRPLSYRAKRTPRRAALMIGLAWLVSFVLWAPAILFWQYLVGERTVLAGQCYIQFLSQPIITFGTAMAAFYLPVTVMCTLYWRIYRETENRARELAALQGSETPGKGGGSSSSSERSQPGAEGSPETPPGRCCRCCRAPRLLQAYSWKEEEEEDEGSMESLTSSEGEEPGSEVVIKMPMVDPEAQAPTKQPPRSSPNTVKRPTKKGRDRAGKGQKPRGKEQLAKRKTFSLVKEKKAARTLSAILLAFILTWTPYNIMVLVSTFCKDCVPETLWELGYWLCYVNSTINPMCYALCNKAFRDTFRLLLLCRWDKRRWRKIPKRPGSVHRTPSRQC

hM4R = molecular target: T2, hM4R (Homo sapiens, UniProt P08173); assay: Radioligand competition binding, [3H]-scopolamine (N-methyl), CHO cell membranes, hM4R; conditions: mean ± SD, n = 3; membranes from CHO cells transfected with hM4R; read-out: Receptor Ki M4
T2 construct: expressed in transfected cells; host or cells: CHO cell membranes
T2 sequence (P08173 1-479): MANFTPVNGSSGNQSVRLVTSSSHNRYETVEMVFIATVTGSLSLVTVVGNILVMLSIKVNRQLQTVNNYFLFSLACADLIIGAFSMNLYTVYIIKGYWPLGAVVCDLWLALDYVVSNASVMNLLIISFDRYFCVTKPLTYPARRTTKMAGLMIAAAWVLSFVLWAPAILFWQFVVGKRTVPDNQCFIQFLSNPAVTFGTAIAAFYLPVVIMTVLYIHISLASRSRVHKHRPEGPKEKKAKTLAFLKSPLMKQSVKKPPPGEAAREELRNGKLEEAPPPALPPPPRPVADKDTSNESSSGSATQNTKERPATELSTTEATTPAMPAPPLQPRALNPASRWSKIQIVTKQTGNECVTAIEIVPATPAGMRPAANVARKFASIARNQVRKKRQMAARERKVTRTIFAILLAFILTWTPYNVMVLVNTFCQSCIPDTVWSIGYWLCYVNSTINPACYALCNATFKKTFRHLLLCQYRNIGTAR

hM5R = molecular target: T3, hM5R (Homo sapiens, UniProt P08912); assay: Radioligand competition binding, [3H]-scopolamine (N-methyl), CHO cell membranes, hM5R; conditions: mean ± SD, n = 3; membranes from CHO cells transfected with hM5R; read-out: Receptor Ki M5
T3 construct: expressed in transfected cells; host or cells: CHO cell membranes
T3 sequence (P08912 1-532): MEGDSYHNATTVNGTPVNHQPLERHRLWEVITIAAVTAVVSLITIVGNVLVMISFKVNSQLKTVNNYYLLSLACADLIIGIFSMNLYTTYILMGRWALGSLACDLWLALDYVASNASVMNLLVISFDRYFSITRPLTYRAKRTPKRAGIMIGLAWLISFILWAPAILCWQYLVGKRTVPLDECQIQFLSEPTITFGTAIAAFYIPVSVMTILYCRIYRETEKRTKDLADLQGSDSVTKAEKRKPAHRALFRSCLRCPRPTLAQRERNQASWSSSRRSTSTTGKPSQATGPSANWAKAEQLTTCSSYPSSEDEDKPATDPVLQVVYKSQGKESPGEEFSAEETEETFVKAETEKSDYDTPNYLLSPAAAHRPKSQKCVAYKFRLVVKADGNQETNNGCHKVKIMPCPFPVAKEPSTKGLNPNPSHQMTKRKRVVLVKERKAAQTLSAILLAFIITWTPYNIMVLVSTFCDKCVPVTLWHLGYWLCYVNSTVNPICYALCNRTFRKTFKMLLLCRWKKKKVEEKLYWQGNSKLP

M2R = molecular target: T4, M2R (Homo sapiens, UniProt P08172); assay: BRET-based TRUPATH GoA activation assay, antagonism of carbachol-induced G protein activation; format: cell-based
T4 sequence (P08172 1-466): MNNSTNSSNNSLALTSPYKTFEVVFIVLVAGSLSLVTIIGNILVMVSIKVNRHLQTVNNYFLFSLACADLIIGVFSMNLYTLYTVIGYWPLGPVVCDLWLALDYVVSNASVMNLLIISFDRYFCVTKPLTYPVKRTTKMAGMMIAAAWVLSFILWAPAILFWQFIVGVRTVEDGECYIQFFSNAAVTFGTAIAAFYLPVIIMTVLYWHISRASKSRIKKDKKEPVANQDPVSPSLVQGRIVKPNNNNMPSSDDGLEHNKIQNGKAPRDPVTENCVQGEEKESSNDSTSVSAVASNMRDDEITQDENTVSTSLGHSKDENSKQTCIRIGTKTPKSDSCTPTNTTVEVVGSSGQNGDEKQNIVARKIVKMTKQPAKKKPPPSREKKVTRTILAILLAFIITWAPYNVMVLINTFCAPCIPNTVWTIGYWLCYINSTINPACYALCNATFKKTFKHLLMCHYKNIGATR

M2R–Cerulean = molecular target: T5, M2R–Cerulean (Homo sapiens, UniProt P08172); assay: Confocal microscopy labeling of live HEK 293T cells; format: cell-based
T5 construct: expressed in transfected cells
T5 sequence (P08172 1-466): T4 sequence (P08172 1-466)

HA–M2R = molecular target: T6, HA–M2R (Homo sapiens, UniProt P08172); assay: Two-photon microscopy labeling of live HEK 293T cells; format: cell-based; conditions: 300 nM
T6 sequence (P08172 1-466): T4 sequence (P08172 1-466)
Description: We examined live M2R cells with two-photon microscopy as well (Figure ). A labeling pattern similar to that observed in the confocal microscopy studies was identified. Figure A illustrates 33 labeling in HA–M2R-transfected cells. […] Similarly to the confocal images, no dye labeling was detected inside the cells. Figure B presents a microscopic image of nontransfected cells, showing a minor degree of autofluorescence. […] For additional two-photon images, see Figures S7 and S8. […]
were examined using a two-photon laser scanning system (Femto2D-uncage, Femtonics Ltd., Budapest, Hungary). The imaging laser (Chameleon Ultra II, Coherent Ltd., Santa Clara, CA, USA) was set to 820 nm and to 2-3% intensity. The excitation was delivered to the slices and the fluorescent signal was collected using an XLUMPlanFI 20x lens (Olympus, Tokyo, Japan).
Before image acquisition, cells were washed twice, and the medium was replaced to modified Krebs–Ringer solution. After capturing the zero-point image, we added 300 nM 33. After two minutes we captured images in 33 and infrared transmission channels. After 3 minutes, unbound 33 was removed by washing the cells with modified Krebs–Ringer solution, and the image […]
(1 picture or pasted object on this page, not shown here)

O=C(CCOCCOCCNC(=O)c1ccc(-c2c3cc(F)c(=O)cc-3oc3cc(O)c(F)cc23)c(C(=O)O)c1)NCCOCCOCCNc1ccccc1C(=O)N1CCC(N2CCC(Cc3ccc(S(=O)(=O)c4cccc(Cl)c4)cc3)CC2)CC1 [Compound 33]
inhibition at 10 µM (hM1R): 38% | Ki (hM4R): 54.1 ± 10.4 nM | Ki (hM5R): 182 ± 23 nM | mode of antagonism of carbachol-induced G protein activation (M2R; TRUPATH GoA assay): competitive antagonists | Log(IC50) ± SD (M), carbachol-induced GoA protein activation (M2R; log10 of IC50 (negative values), HEK 293T, compound 20 min, then 10 μM carbachol 15 min, Hill-slope = 1, n = 3): –7.39 ± 0.09 M | labeling of M2R–Cerulean-expressing cells (M2R–Cerulean; 300 nM, 3 min, live transfected HEK 293T): significant labeling | labeling of nontransfected cells (M2R–Cerulean; 300 nM, 3 min, nontransfected HEK 293T): no labeling was observed | labeling after atropine pretreatment (M2R–Cerulean; 100 μM atropine 5 min before 300 nM 33): no labeling | labeling of HA–M2R-transfected cells (HA–M2R; excited at 820 nm, live HEK 293T): selectively only at the plasma membrane | labeling of nontransfected cells (HA–M2R; nontransfected HEK 293T): no receptor labeling was observed
